The record followed here is ChEMBL document CHEMBL3044876, “The sodium channel gene in Tetranychus cinnabarinus (Boisduval): identification and expression analysis of a mutation associated with pyrethroid resistance” (2011).

Values after ≈ are worked out from the molar mass of the structure shown.

Holding throughout (type): functional
In test [1] the test system is Tetranychus cinnabarinus. Briefly: Resistance ratio, LC50 for insecticidal activity against compound resistant Tetranychus cinnabarinus (carmine spider mite) in presence of piperonyl butoxide (PBO), diethyl maleate (DEM) and triphenyl phosphate (TPP) to LC50 for insecticidal activity against compound susceptible Tetranychus cinnabarinus in presence of piperonyl butoxide (PBO), diethyl maleate (DEM) and triphenyl phosphate (TPP).

The subject of test [2] is Tetranychus cinnabarinus. The test is described as follows: Synergism ratio, LC50 for insecticidal activity against compound resistant Tetranychus cinnabarinus (carmine spider mite) to LC50 for insecticidal activity against compound resistant Tetranychus cinnabarinus in presence of piperonyl butoxide (PBO), diethyl maleate (DEM) and triphenyl phosphate (TPP).
The subject of test [3] is Tetranychus cinnabarinus. Briefly: Insecticidal activity against compound susceptible Tetranychus cinnabarinus (carmine spider mite).
Test [4] relates to Tetranychus cinnabarinus. Briefly: Insecticidal activity against compound resistant Tetranychus cinnabarinus (carmine spider mite) in presence of piperonyl butoxide (PBO), diethyl maleate (DEM) and triphenyl phosphate (TPP).

In general, LC50 refers to the concentration lethal to half of the exposed cells or organisms. As for `CC1(C)C(C(=O)OC(C#N)c2cccc(Oc3ccccc3)c2)C1(C)C` (centres undefined) [FENPROPATHRIN], the Ratio was 98.5 in the test with Tetranychus cinnabarinus [1] and 1 in the test on Tetranychus cinnabarinus [2]. Besides, the figures for the LC50 with Tetranychus cinnabarinus [3] and in the test on Tetranychus cinnabarinus [4] were 0.714 mg/mL (≈ 2040 µM) and 70.3 mg/mL, respectively.
